Structures can show the parent of a compound that is named as a salt. Where two headings read alike, the source gives them in different places.
Tests used:
3-nitrotyrosine = settings: ex vivo lung, cigarette smoke; cited from earlier work
SARS-CoV-2 [1] = settings: from WO 2021/249667 and WO 2021/219244; cited from earlier work
SARS-CoV-2 [2] = assay type: cell-based

In the case of `Nc1cccc2c(=O)[nH][nH]c(=O)c12.[Na]` [5-amino-2,3-dihydro-1,4-phthalazinedione sodium salt], the “reduction of 3-nitrotyrosine” value (3-nitrotyrosine) is given as “nearly complete reduction”, the “inhibition of the replication of SARS-CoV-2 in vitro” value (from here on “inhibition”) (SARS-CoV-2 [1]) is given as “dose-dependently inhibit” and the “amount of SARS-CoV-2 RNA copies (qRT-PCR-amplified RdRp, in relation to untreated cells)” value (shortened to “amount of SARS-CoV-2 RNA copies”) (SARS-CoV-2 [2]) is given as “dose-dependent reduction”.

In the case of `C=C[C@H]1C[N@@]2CC[C@H]1C[C@@H]2[C@@H](O)c1ccnc2ccc(OC)cc12` [quinidine sulfate], the “amount of SARS-CoV-2 RNA copies” value (SARS-CoV-2 [2]; Example 3, Calu-3 cells, 3 days, luminol sodium salt 500/250/125 μM, quinidine sulfate 10/1/0.1 μM, alone and combined, n=2) is reported as “dose-dependent reduction”.

In the case of `C=C[C@H]1CN2CC[C@H]1C[C@@H]2[C@@H](O)c1ccnc2ccc(OC)cc12` [quinidine, (+)-(9S)-6′-methoxycinchonan-9-ol], the “inhibition” value (SARS-CoV-2 [1]) is listed as “Such an effect was also described”.

In the case of `C=C[C@H]1C[N@@]2CC[C@H]1C[C@H]2[C@H](O)c1ccnc2ccc(OC)cc12` [quinine sulfate], the “amount of SARS-CoV-2 RNA copies” value (SARS-CoV-2 [2]; Example 1, Calu-3 cells, 3 days, luminol sodium salt 500/250/125 μM, quinine sulfate 10/1/0.1 μM, alone and combined, n=3) is reported as “dose-dependent reduction”.

For `C=C[C@H]1CN2CC[C@H]1C[C@H]2[C@H](O)c1ccnc2ccc(OC)cc12` [quinine, (−)-(8a,9R)-6′-methoxycinchonan-9-ol], the “inhibition” value (SARS-CoV-2 [1]) is listed as “Such an effect was also described”.
